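Test compounds were applied to cells in 96-well plates for 48 hours at 5 doses. GI50 = concentration required for 50% inhibition of growth.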 Active and inactive are the calls of the source. No stated cut-off is given here; in the data, active = GI50 up to about 1.1 µM and inactive = higher.
How the values were obtained:
Experiment in all cases: NCI tumour cell line growth inhibition, 48 h
[1] = test system: MOLT-4
[2] = test system: Hs-578T
[3] = test system: ACHN
[4] = test system: A549
[5] = test system: PC-3
[6] = test system: 786-0
[7] = test system: UACC-62
[8] = test system: MDA-MB-231
[9] = test system: A498
[10] = test system: SK-MEL-28
[11] = test system: SW-620
[12] = test system: SF-539
[13] = test system: HCC 2998
[14] = test system: IGROV-1
[15] = test system: TK-10
[16] = test system: SN12C
[17] = test system: KM12
[18] = test system: SK-MEL-2
[19] = test system: HT-29
[20] = test system: NCI-H522

SMILES: CC1CCc2c(c(CC3CC(=O)NC(=O)C3)nn2-c2ccccc2)C1 (configuration not stated)
- GI50 [1]: > 100 µM (inactive)
- GI50 [2]: > 100 µM (inactive)
- GI50 [3]: > 100 µM (inactive)
- GI50 [4]: > 100 µM (inactive)
- GI50 [5]: > 100 µM (inactive)
- GI50 [6]: > 100 µM (inactive)
- GI50 [7]: 76.2 µM (inactive)
- GI50 [8]: > 100 µM (inactive)
- GI50 [9]: > 100 µM (inactive)
- GI50 [10]: > 100 µM (inactive)
- GI50 [11]: > 100 µM (inactive)
- GI50 [12]: > 100 µM (inactive)
- GI50 [13]: > 100 µM (inactive)
- GI50 [14]: > 100 µM (inactive)
- GI50 [15]: > 100 µM (inactive)
- GI50 [16]: > 100 µM (inactive)
- GI50 [17]: > 100 µM (inactive)
- GI50 [18]: > 100 µM (inactive)
- GI50 [19]: > 100 µM (inactive)

SMILES: Cc1c(-c2ccccc2)cc(O)c2nc3ccccc3n12
- GI50 [1]: 8.28 µM (inactive)
- GI50 [20]: 20.4 µM (inactive)
- GI50 [2]: 55.1 µM (inactive)
- GI50 [3]: 21.6 µM (inactive)
- GI50 [4]: 14.5 µM (inactive)
- GI50 [5]: 31.7 µM (inactive)
- GI50 [6]: 29 µM (inactive)
- GI50 [7]: 11 µM (inactive)
- GI50 [8]: 5.61 µM (inactive)
- GI50 [9]: > 100 µM (inactive)
- GI50 [10]: > 100 µM (inactive)
- GI50 [11]: 20.7 µM (inactive)
- GI50 [12]: > 100 µM (inactive)
- GI50 [13]: 17.8 µM (inactive)
- GI50 [14]: 39.5 µM (inactive)
- GI50 [15]: > 100 µM (inactive)
- GI50 [16]: > 100 µM (inactive)
- GI50 [17]: 15.6 µM (inactive)
- GI50 [19]: > 100 µM (inactive)

SMILES: Cc1ccc(C)c(COCCOCn2ccc(N)nc2=O)c1
- GI50 [1]: > 100 µM (inactive)
- GI50 [20]: > 100 µM (inactive)
- GI50 [2]: > 100 µM (inactive)
- GI50 [3]: > 100 µM (inactive)
- GI50 [4]: > 100 µM (inactive)
- GI50 [5]: > 100 µM (inactive)
- GI50 [6]: > 100 µM (inactive)
- GI50 [7]: > 100 µM (inactive)
- GI50 [8]: > 100 µM (inactive)
- GI50 [9]: > 100 µM (inactive)
- GI50 [10]: > 100 µM (inactive)
- GI50 [11]: > 100 µM (inactive)
- GI50 [12]: > 100 µM (inactive)
- GI50 [13]: > 100 µM (inactive)
- GI50 [14]: > 100 µM (inactive)
- GI50 [15]: > 100 µM (inactive)
- GI50 [16]: > 100 µM (inactive)
- GI50 [17]: > 100 µM (inactive)
- GI50 [18]: > 100 µM (inactive)

SMILES: O=c1[nH]nc(-c2ccccc2)n1-c1ccncc1
- GI50 [1]: > 100 µM (inactive)
- GI50 [20]: > 100 µM (inactive)
- GI50 [2]: > 100 µM (inactive)
- GI50 [3]: > 100 µM (inactive)
- GI50 [4]: > 100 µM (inactive)
- GI50 [5]: > 100 µM (inactive)
- GI50 [6]: > 100 µM (inactive)
- GI50 [8]: > 100 µM (inactive)
- GI50 [9]: > 100 µM (inactive)
- GI50 [10]: > 100 µM (inactive)
- GI50 [11]: > 100 µM (inactive)
- GI50 [12]: > 100 µM (inactive)
- GI50 [13]: > 100 µM (inactive)
- GI50 [14]: > 100 µM (inactive)
- GI50 [15]: > 100 µM (inactive)
- GI50 [16]: > 100 µM (inactive)
- GI50 [17]: > 100 µM (inactive)
- GI50 [19]: > 100 µM (inactive)

SMILES: CCOc1nc2sc3c(c2c(=O)n1CCSSCCn1c(OCC)nc2sc4c(c2c1=O)CCCC4)CCCC3
- GI50 [1]: > 100 µM (inactive)
- GI50 [2]: > 100 µM (inactive)
- GI50 [3]: > 100 µM (inactive)
- GI50 [4]: > 100 µM (inactive)
- GI50 [5]: > 100 µM (inactive)
- GI50 [6]: > 100 µM (inactive)
- GI50 [7]: > 100 µM (inactive)
- GI50 [8]: > 100 µM (inactive)
- GI50 [9]: > 100 µM (inactive)
- GI50 [10]: > 100 µM (inactive)
- GI50 [11]: > 100 µM (inactive)
- GI50 [12]: > 100 µM (inactive)
- GI50 [13]: > 100 µM (inactive)
- GI50 [14]: > 100 µM (inactive)
- GI50 [15]: > 100 µM (inactive)
- GI50 [16]: > 100 µM (inactive)
- GI50 [17]: > 100 µM (inactive)
- GI50 [18]: > 100 µM (inactive)
- GI50 [19]: > 100 µM (inactive)

SMILES: COC(=O)CNC(=O)CCC(C)[C@H]1CCC2C3C(C[C@H](OC(C)=O)[C@@]21C)[C@@]1(C)CCC2(C[C@H]1C[C@H]3OC(C)=O)OOC1(CC[C@]3(C)C4C[C@H](OC(C)=O)[C@@]5(C)C(CC[C@@H]5C(C)CCC(=O)NCC(=O)OC)C4[C@H](OC(C)=O)C[C@@H]3C1)OO2 (some centres not stated)
- GI50 [1]: 0.163 µM (active)
- GI50 [20]: 0.991 µM (active)
- GI50 [2]: 0.938 µM (active)
- GI50 [3]: 0.838 µM (active)
- GI50 [4]: 0.914 µM (active)
- GI50 [5]: 1.64 µM (inactive)
- GI50 [6]: 0.76 µM (active)
- GI50 [8]: 1.31 µM (inactive)
- GI50 [9]: 12 µM (inactive)
- GI50 [10]: 1.61 µM (inactive)
- GI50 [11]: 1.71 µM (inactive)
- GI50 [12]: 0.959 µM (active)
- GI50 [13]: 0.944 µM (active)
- GI50 [14]: 0.836 µM (active)
- GI50 [15]: 1.19 µM (inactive)
- GI50 [16]: 0.802 µM (active)
- GI50 [17]: 3.98 µM (inactive)
- GI50 [18]: 0.764 µM (active)
- GI50 [19]: 1.01 µM (active)

SMILES: Nc1nc(O)c2ncn(C3C=CC(CO)C3)c2n1 (configuration not stated)
- GI50 [20]: > 100 µM (inactive)
- GI50 [2]: > 100 µM (inactive)
- GI50 [3]: > 100 µM (inactive)
- GI50 [4]: > 100 µM (inactive)
- GI50 [5]: > 100 µM (inactive)
- GI50 [6]: > 100 µM (inactive)
- GI50 [7]: > 100 µM (inactive)
- GI50 [8]: > 100 µM (inactive)
- GI50 [9]: > 100 µM (inactive)
- GI50 [10]: > 100 µM (inactive)
- GI50 [11]: > 100 µM (inactive)
- GI50 [12]: > 100 µM (inactive)
- GI50 [13]: > 100 µM (inactive)
- GI50 [14]: > 100 µM (inactive)
- GI50 [15]: > 100 µM (inactive)
- GI50 [16]: > 100 µM (inactive)
- GI50 [17]: > 100 µM (inactive)
- GI50 [18]: > 100 µM (inactive)
- GI50 [19]: > 100 µM (inactive)

Reference: ChEMBL document CHEMBL1201862, “PubChem BioAssay data set” (2004)
